This is an account of results in patent US20220016243A1, “METHODS FOR TREATMENT OF CANCER WITH AN ANTI-TIGIT ANTAGONIST ANTIBODY” (Genentech, Inc., priority 2020, published 2022).

Read-outs that look alike come from different tables or passages of the source.

A short description of data set [1]: Internal safety review of lung cancer clinical trials (paclitaxel). The class given is in vivo, human. The following applies: patients from Asian countries compared with those from non-Asian countries. As to the method: Patients of Asian race/ethnicity have a lower starting dose of paclitaxel at 175 mg/m2 IV over 3 hours. […] As used in this study, Asian race/ethnicity refers to a panethnic/racial group that includes diverse populations who either live or have ancestral origins in East Asia, Southeast Asia, or South Asia. The applicability of such term in a particular patient is at the discretion of the treating investigator and should be based on the patient's clinical characteristics and country of origin.

Data set [2] deals with chemotherapy-naive patients with locally advanced unresectable or metastatic PD-L1-selected NSCLC. The following applies: cutoff 30 Jun. 2019.
For data set [3], the system named is patients with metastatic bladder. The following applies: 8 of 17 patients at the recommended Phase II dose; prior CPI treatment; 95% CI: 23, 72.2; cited from earlier work.
For data set [4], the system named is patients with mUC who had progressed on platinum-based therapy and checkpoint inhibitor therapy. The following applies: cited from earlier work.
Data set [5] deals with patients with advanced or metastatic HCC. The conditions noted are these: cited from earlier work.
The conditions of data set [6]: cited from earlier work.
For data set [7] the following is noted: human, in vivo; cited from earlier work.

For the compound `CC(=O)O[C@H]1C(=O)[C@@]2(C)[C@H]([C@H](OC(=O)c3ccccc3)[C@]3(O)C[C@H](OC(=O)[C@H](O)[C@@H](NC(=O)c4ccccc4)c4ccccc4)C(C)=C1C3(C)C)[C@]1(OC(C)=O)CO[C@@H]1C[C@@H]2O` [paclitaxel], in data set [1], the “incidence of hematologic toxicities” value was “higher overall incidence of hematologic toxicities”.

For “placebo and atezolizumab: control arm of Study GO40290: placebo in combination with atezolizumab”, the all-grade adverse events in data set [2] (135 safety-evaluable patients, tiragolumab 600 mg every 3 weeks) is listed as 95.6%. Also, in data set [2] (ITT population), the ORR is given as 16.2% and the “investigator-assessed PFS” value is given as 3.6 months. In addition, in data set [2], the “AEs leading to treatment discontinuation” value is given as 10.3%, the “Grade ≥3 AEs” value turned out to be 44.1%, the “adverse events of special interest” value is on record as 32.4% and the “serious AEs” value came to 35.3%.

Turning to enfortumab vedotin, the “patients who obtained a PR” value in data set [3] is reported as 47%.

For the compound sacituzumab govitecan, the ORR in data set [4] (35 patients) is listed as 29%; in data set [4] (patients with liver metastases), 25.0%.

`CNC(=O)c1cc(Oc2ccc(NC(=O)Nc3ccc(Cl)c(C(F)(F)F)c3)cc2)ccn1` [sorafenib]: in data set [5] (Independent Review Facility-assessed per RECIST v1.1), the “median PFS” value is 4.27 months. Besides, in data set [5] (in vivo), the “median OS” value was 13.24 months.

As for `[NH2][Pt]1([NH2])[O]C(=O)C2(CCC2)C(=O)[O]1` [carboplatin, platinum, diammine[I,I-cyclobutanedicarboxylato(2-)-0,0′]-, (SP-4-2)], the “pH of a 1% solution” value in data set [6] (1% solution) is recorded as 5 to 7. Moreover, in data set [6] (ethanol, acetone, dimethylacetamide), the “solubility in ethanol, acetone, and dimethylacetamide” value is “virtually insoluble”. In addition, the solubility in water result in data set [6] (water) is listed as “approximately 14 mg/mL”.

For `Nc1ccn([C@@H]2O[C@H](CO)[C@@H](O)C2(F)F)c(=O)n1` [gemcitabine], the “most common adverse events” value in data set [7] was “nausea/vomiting, anemia, hepatic transaminitis, neutropenia, increased ALP, proteinuria, fever, hematuria, rash, thrombocytopenia, dyspnea, and peripheral edema”.
